ChEMBL document CHEMBL4339183, “Discovery of N-indanyl benzamides as potent RORγt inverse agonists” (Eur J Med Chem, 2019)

Tests used:
[1] = target: T1, Nuclear receptor ROR-gamma (Homo sapiens, UniProt P51449); assay: Inverse agonist activity at APC-labeled biotinylated RORgammat LBD (unknown origin) assessed as inhibition of N-(2-chloro-6-fluorobenzyl)-N-((20-methoxy-[1,10-biphenyl]-4-yl)methyl)benzenesulfonamide-induced co-activator europium-labeled biotinylated SRC1 peptide recruitment after 1 hr by LANCE-FRET assay
T1 sequence (P51449 whole entry): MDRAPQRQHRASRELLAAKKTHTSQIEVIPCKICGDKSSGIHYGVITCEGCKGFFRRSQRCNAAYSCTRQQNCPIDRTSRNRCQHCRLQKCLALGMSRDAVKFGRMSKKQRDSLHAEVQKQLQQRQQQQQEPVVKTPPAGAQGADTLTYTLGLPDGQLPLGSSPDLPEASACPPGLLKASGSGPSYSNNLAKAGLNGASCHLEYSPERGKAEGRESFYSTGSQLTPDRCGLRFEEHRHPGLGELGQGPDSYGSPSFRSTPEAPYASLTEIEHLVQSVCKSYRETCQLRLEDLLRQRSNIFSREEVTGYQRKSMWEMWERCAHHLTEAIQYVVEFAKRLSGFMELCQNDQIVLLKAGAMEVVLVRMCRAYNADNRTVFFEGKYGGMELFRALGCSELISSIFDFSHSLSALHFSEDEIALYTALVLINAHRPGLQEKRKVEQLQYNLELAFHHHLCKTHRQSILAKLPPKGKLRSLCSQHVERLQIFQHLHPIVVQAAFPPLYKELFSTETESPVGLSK

[2] = target: T2, Nuclear receptor ROR-gamma (Mus musculus, UniProt P51450); assay: Inverse agonist activity at RORgammat in mouse CD4 positive T cells assessed as inhibition of Th17 cell differentiation by measuring IL-17 release after 4 days by cellular staining based flow cytometry
T2 sequence (P51450 whole entry): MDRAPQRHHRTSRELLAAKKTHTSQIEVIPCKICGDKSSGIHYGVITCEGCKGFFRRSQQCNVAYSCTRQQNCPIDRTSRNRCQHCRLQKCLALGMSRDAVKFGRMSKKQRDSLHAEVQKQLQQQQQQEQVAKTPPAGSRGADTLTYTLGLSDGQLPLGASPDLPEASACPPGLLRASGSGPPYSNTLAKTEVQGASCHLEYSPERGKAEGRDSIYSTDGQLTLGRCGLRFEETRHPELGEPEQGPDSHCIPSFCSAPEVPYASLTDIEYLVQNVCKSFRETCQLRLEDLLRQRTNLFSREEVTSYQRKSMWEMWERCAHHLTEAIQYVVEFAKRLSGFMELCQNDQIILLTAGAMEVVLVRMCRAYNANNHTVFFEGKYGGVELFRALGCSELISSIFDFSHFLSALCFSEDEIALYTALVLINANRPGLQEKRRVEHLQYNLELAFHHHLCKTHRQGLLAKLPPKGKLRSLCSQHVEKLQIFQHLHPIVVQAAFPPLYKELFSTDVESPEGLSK

N#Cc1cccc(C(=O)Nc2cccc3c2ccn3C2CCN(C(=O)C3CCCC3)CC2)c1
IC50 [1]: Not Active

N#Cc1cccc(C(=O)Nc2ccc3c(c2)[C@H](N2CC4CCC(C2)N4C(=O)C2CCCCC2)CC3)c1
IC50 [2]: Not Active

O=C(CC1CCOCC1)Nc1cccc2c1CCC2N1CC2CCC(C1)N2C(=O)C1CCCC1 (stereo not drawn)
IC50 ([1]; read-out: IC50): > 10 µM
